Molecular target: human APJ receptor (Homo sapiens (Human), UniProt P35414)
Test: biochemical
Format: biochemical
Details: read-out: Activity hAPJ SPA EC50 IP
Summary of the method: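 Agonist-stimulated [35S]GTPγS (0.2 nM) binding was read by SPA after 90 min at room temperature. Buffer: 20 mM HEPES pH 7.5 with 5 mM MgCl2, 200 mM NaCl, 3 μM GDP, 0.1% BSA; membranes were from a stable human APJ CHO line. EC50 values are averages of independent runs, fitted by non-linear regression.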

Chain of human APJ receptor (P35414 whole entry): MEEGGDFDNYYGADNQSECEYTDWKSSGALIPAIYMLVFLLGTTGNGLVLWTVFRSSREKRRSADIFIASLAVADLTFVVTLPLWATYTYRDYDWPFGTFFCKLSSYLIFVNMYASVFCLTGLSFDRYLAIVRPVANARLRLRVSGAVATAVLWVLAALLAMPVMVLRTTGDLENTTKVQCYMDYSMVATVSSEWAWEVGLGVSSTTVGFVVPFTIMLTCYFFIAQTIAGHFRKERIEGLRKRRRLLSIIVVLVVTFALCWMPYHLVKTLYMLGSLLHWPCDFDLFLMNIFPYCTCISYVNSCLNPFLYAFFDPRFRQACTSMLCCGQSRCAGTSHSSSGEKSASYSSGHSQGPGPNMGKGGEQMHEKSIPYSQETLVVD

SMILES | EC50 [nM]
COc1ncnc(OC)c1-n1c(NS(=O)(=O)[C@@H](C)[C@H](OC)c2ncc(C)cn2)nnc1-c1ccccn1 [Example 628.0, (1R,2S)-N-(4-(4,6-dimethoxy-5-pyrimidinyl)-5-(2-pyridinyl)-4H-1,2,4-triazol-3-yl)-1-methoxy-1-(5-methyl-2-pyrimidinyl)-2-propanesulfonamide] | 6.5
COc1cccc(OC)c1-n1c(NS(=O)(=O)[C@@H](C)[C@H](OC)c2ncc(C)cn2)nnc1-c1ccccn1 [Example 629.0, (1R,2S)-N-(4-(2,6-dimethoxyphenyl)-5-(2-pyridinyl)-4H-1,2,4-triazol-3-yl)-1-methoxy-1-(5-methyl-2-pyrimidinyl)-2-propanesulfonamide] | 1.6
COCCOc1cccc(-c2nnc(NS(=O)(=O)[C@@H](C)[C@H](C)c3ncc(F)cn3)n2-c2c(OC)cccc2OC)n1 [Example 638.0, (2S,3R)-N-(4-(2,6-dimethoxyphenyl)-5-(6-(2-methoxyethoxy)pyridin-2-yl)-4H-1,2,4-triazol-3-yl)-3-(5-fluoropyrimidin-2-yl)butane-2-sulfonamide] | 0.65
CNc1cccc(-c2nnc(NS(=O)(=O)[C@@H](C)[C@H](C)c3ncc(F)cn3)n2-c2c(OC)cccc2OC)n1 [Example 641.0, (2S,3R)-N-(4-(2,6-dimethoxyphenyl)-5-(6-(methylamino)pyridin-2-yl)-4H-1,2,4-triazol-3-yl)-3-(5-fluoropyrimidin-2-yl)butane-2-sulfonamide] | 0.14
COc1cccc(OC(F)F)c1-n1c(NS(=O)(=O)[C@@H](C)[C@H](OC)c2ncc(C)cn2)nnc1-c1cccnc1 [Example 667.0, (1R,2S,P)-N-(4-(2-(difluoromethoxy)-6-methoxyphenyl)-5-(3-pyridinyl)-4H-1,2,4-triazol-3-yl)-1-methoxy-1-(5-methyl-2-pyrimidinyl)-2-propanesulfonamide and (1R,2S,M)-N-(4-(2-(difluoromethoxy)-6-methoxyphenyl)-5-(3-pyridinyl)-4H-1,2,4-triazol-3-yl)-1-methoxy-1-(5-methyl-2-pyrimidinyl)-2-propanesulfonamide] | 2.6
COc1cccc(OC(F)F)c1-n1c(NS(=O)(=O)[C@@H](C)[C@H](OC)c2ncc(C)cn2)nnc1-c1cncc(C)c1 [Example 668.0, (1R,2S,P)-N-(4-(2-(difluoromethoxy)-6-methoxyphenyl)-5-(5-methyl-pyridinyl)-4H-1,2,4-triazol-3-yl)-1-methoxy-1-(5-methyl-2-pyrimidinyl)-2-propanesulfonamide and (1R,2S,M)-N-(4-(2-(difluoromethoxy)-6-methoxyphenyl)-5-(5-methyl-3-pyridinyl)-4H-1,2,4-triazol-3-yl)-1-methoxy-1-(5-methyl-2-pyrimidinyl)-2-propanesulfonamide] | 0.76
CO[C@H](c1ncc(C)cn1)[C@H](C)S(=O)(=O)Nc1nnc(-c2cccnc2)n1-c1c(OC(F)F)cccc1OC(F)F [Example 669.0, (1R,2S)-N-(4-(2,6-bis(difluoromethoxy)phenyl)-5-(3-pyridinyl)-4H-1,2,4-triazol-3-yl)-1-methoxy-1-(5-methyl-2-pyrimidinyl)-2-propanesulfonamide] | 2.7
CO[C@H](c1ncc(C)cn1)[C@H](C)S(=O)(=O)Nc1nnc(-c2cncc(C)c2)n1-c1c(OC(F)F)cccc1OC(F)F [Example 670.0, (1R,2S)-N-(4-(2,6-bis(difluoromethoxy)phenyl)-5-(5-methyl-3-pyridinyl)-4H-1,2,4-triazol-3-yl)-1-methoxy-1-(5-methyl-2-pyrimidinyl)-2-propanesulfonamide] | 0.55
CO[C@H](c1ncc(C)cn1)[C@H](C)S(=O)(=O)Nc1nnc(-c2cncc(C)c2)n1-c1c(Cl)cccc1Cl [Example 675.0, (1R,2S)-N-(4-(2,6-dichlorophenyl)-5-(5-methyl-3-pyridinyl)-4H-1,2,4-triazol-3-yl)-1-methoxy-1-(5-methyl-2-pyrimidinyl)-2-propanesulfonamide 2,2,2-trifluoroacetate] | 2.6
COc1cccc(-c2nnc(NS(=O)(=O)CCc3ncc(F)cn3)n2-c2c(OC)cccc2OC)n1 [Example 676.0, N-(4-(2,6-dimethoxyphenyl)-5-(6-methoxy-2-pyridinyl)-4H-1,2,4-triazol-3-yl)-2-(5-fluoro-2-pyrimidinyl)ethanesulfonamide 2,2,2-trifluoroacetate] | 6
CO[C@H](c1ncc(C)cn1)[C@H](C)S(=O)(=O)Nc1nnc(-c2cncc(C)c2)n1-c1c(F)cccc1F [Example 677.0, (1R,2S)-N-(4-(2,6-difluorophenyl)-5-(5-methylpyridin-3-yl)-4H-1,2,4-triazol-3-yl)-1-methoxy-1-(5-methylpyrimidin-2-yl)propane-2-sulfonamide 2,2,2-trifluoroacetate] | 7.2
COc1cnc([C@@H](C)[C@H](C)S(=O)(=O)Nc2nnc(-c3cncc(C)c3)n2-c2c(OC)cccc2OC)nc1 [Example 682.0, (2S,3R)-N-(4-(2,6-dimethoxyphenyl)-5-(5-methyl-3-pyridinyl)-4H-1,2,4-triazol-3-yl)-3-(5-methoxy-2-pyrimidinyl)-2-butanesulfonamide 2,2,2-trifluoroacetate] | 0.2
COc1cccc(-c2nnc(NS(=O)(=O)[C@@H](C)[C@H](OC)c3ncc(C)cn3)n2-c2c(F)cccc2F)n1 [Example 684.0, (1R,2S)-N-(4-(2,6-difluorophenyl)-5-(6-methoxy-2-pyridinyl)-4H-1,2,4-triazol-3-yl)-1-methoxy-1-(5-methyl-2-pyrimidinyl)-2-propanesulfonamide] | 0.81
COc1cnc([C@@H](OC)[C@@H](C)S(=O)(=O)Nc2nnc(-c3cncc(C)c3)n2-c2c(OC)cccc2OC)nc1 [Example 687.0, (1R,2R)-N-(4-(2,6-dimethoxyphenyl)-5-(5-methyl-3-pyridinyl)-4H-1,2,4-triazol-3-yl)-1-methoxy-1-(5-methoxy-2-pyrimidinyl)-2-propanesulfonamide 2,2,2-trifluoroacetate] | 4.7
COc1ncnc(OC)c1-n1c(NS(=O)(=O)[C@@H](C)[C@H](C)c2ncc(Cl)cn2)nnc1-c1cccnc1 [Example 709.0, (2S,3R)-3-(5-chloro-2-pyrimidinyl)-N-(4-(4,6-dimethoxy-5-pyrimidinyl)-5-(3-pyridinyl)-4H-1,2,4-triazol-3-yl)-2-butanesulfonamide] | 0.71
COc1cccc(-c2nnc(NS(=O)(=O)[C@@H](C)[C@H](C)c3ncc(Cl)cn3)n2-c2c(OC)ncnc2OC)n1 [Example 710.0, (2S,3R)-3-(5-chloro-2-pyrimidinyl)-N-(4-(4,6-dimethoxy-5-pyrimidinyl)-5-(6-methoxy-2-pyridinyl)-4H-1,2,4-triazol-3-yl)-2-butanesulfonamide] | 0.21
COc1cccc(OC)c1-n1c(NS(=O)(=O)[C@@H](C)[C@@H](OC(C)C)c2ncc(C)cn2)nnc1-c1cccc(C)n1 [Example 738.0, (1S,2S)-N-(4-(2,6-dimethoxyphenyl)-5-(6-methylpyridin-2-yl)-4H-1,2,4-triazol-3-yl)-1-isopropoxy-1-(5-methylpyrimidin-2-yl)propane-2-sulfonamide] | 0.1
COc1cccc(OC)c1-n1c(NS(=O)(=O)[C@@H](C)[C@H](OC)c2ncc(C3=CCOCC3)cn2)nnc1-c1cncc(C)c1 [Example 749.0, (1R,2S)-1-(5-(3,6-dihydro-2H-pyran-4-yl)pyrimidin-2-yl)-N-(4-(2,6-dimethoxyphenyl)-5-(5-methylpyridin-3-yl)-4H-1,2,4-triazol-3-yl)-1-methoxypropane-2-sulfonamide] | 15
COc1cccc(OC)c1-n1c(NS(=O)(=O)[C@@H](C)[C@H](OC)c2ncc(-c3cccnc3)cn2)nnc1-c1cncc(C)c1 [Example 752.0, (1R,2S)—N-(4-(2,6-dimethoxyphenyl)-5-(5-methylpyridin-3-yl)-4H-1,2,4-triazol-3-yl)-1-methoxy-1-(5-(pyridin-3-yl)pyrimidin-2-yl)propane-2-sulfonamide] | 3.6
Cc1cnc([C@@H](C)[C@H](C)S(=O)(=O)Nc2nnc(-c3cncc(C)c3)n2-c2c(OC(F)F)cccc2OC(F)F)nc1 [Example 763.0, (2S,3R)—N-(4-(2,6-bis(difluoromethoxy)phenyl)-5-(5-methylpyridin-3-yl)-4H-1,2,4-triazol-3-yl)-3-(5-methylpyrimidin-2-yl)butane-2-sulfonamide] | 0.71
COc1ncnc(OC)c1-n1c(NS(=O)(=O)[C@@H](C)[C@H](C)c2cnc(C)cn2)nnc1-c1ccccn1 [Example 773.0, (2S,3R)-N-(4-(4,6-dimethoxy-5-pyrimidinyl)-5-(2-pyridinyl)-4H-1,2,4-triazol-3-yl)-3-(5-methyl-2-pyrazinyl)-2-butanesulfonamide] | 14
COc1cccc(OC)c1-n1c(NS(=O)(=O)[C@@H](C)[C@H](C)c2cnc(C)cn2)nnc1-c1ccccn1 [Example 774.0, (2S,3R)-N-(4-(2,6-dimethoxyphenyl)-5-(2-pyridinyl)-4H-1,2,4-triazol-3-yl)-3-(5-methyl-2-pyrazinyl)-2-butanesulfonamide] | 8.2
COc1cccc(OC)c1-n1c(NS(=O)(=O)[C@@H](C)[C@H](C)c2ncc(C)cn2)nnc1-c1ccccn1 [Example 775.0, (2S,3R)-N-(4-(2,6-dimethoxyphenyl)-5-(2-pyridinyl)-4H-1,2,4-triazol-3-yl)-3-(5-methyl-2-pyrimidinyl)-2-butanesulfonamide] | 2.1
COc1ncnc(OC)c1-n1c(NS(=O)(=O)[C@@H](C)[C@H](C)c2ncc(C)cn2)nnc1-c1ccccn1 [Example 776.0, (2S,3R)-N-(4-(4,6-dimethoxy-5-pyrimidinyl)-5-(2-pyridinyl)-4H-1,2,4-triazol-3-yl)-3-(5-methyl-2-pyrimidinyl)-2-butanesulfonamide] | 3.9
COc1ncnc(OC)c1-n1c(NS(=O)(=O)[C@@H](C)[C@@H](OC(C)C)c2ncc(C)cn2)nnc1-c1ccccn1 [Example 777.0, (1S,2S)-N-(4-(4,6-dimethoxy-5-pyrimidinyl)-5-(2-pyridinyl)-4H-1,2,4-triazol-3-yl)-1-(1-methylethoxy)-1-(5-methyl-2-pyrimidinyl)-2-propanesulfonamide] | 2.2
